Measured values as given in ChEMBL document CHEMBL1130646, “Excellent acceleration of the Diels-Alder reaction by microwave irradiation for the synthesis of new fluorine-substituted ligands of NMDA receptor” (Bioorg Med Chem Lett, 1998).

Target: Glutamate NMDA receptor
Assay: Displacement of [3H]TCP from the TCP site of NMDA receptor in rat brain homogenate
Assay type: tissue-based

## FCCc1ccc(C2(c3cccs3)CC3c4ccccc4C2c2cccc[n+]23)s1 (stereo in doubt; 18)
  IC50: 47 nM

## OCCc1ccc(C2(c3ccc(CCO)s3)CC3c4ccccc4C2c2cccc[n+]23)s1 (configuration not stated)
  IC50: 12400 nM

## OCCc1ccc(C2(c3cccs3)CC3c4ccccc4C2c2cccc[n+]23)s1 (stereo in doubt; 20)
  IC50: 61 nM

## c1csc(C2(c3cccs3)CC3c4ccccc4C2c2cccc[n+]23)c1 (configuration not stated)
  IC50: 3.6 nM

## OCCc1ccc(C2(c3cccs3)CC3c4ccccc4C2c2cccc[n+]23)s1 (stereo in doubt; 21)
  IC50: 141 nM

## FCCc1ccc(C2(c3cccs3)CC3c4ccccc4C2c2cccc[n+]23)s1 (stereo in doubt; 19)
  IC50: 89 nM

## c1ccc(C2(N3CCCCC3)CCCCC2)cc1 [PHENCYCLIDINE]
  IC50: 47 nM
